Test results from patent publication US9365511B2, “Biphenyl-ethyl-pyrrolidine derivatives as histamine H3 receptor modulators for the treatment of cognitive disorders” (Arena Pharmaceuticals, Inc., priority 2013, dated 2016).
Entries after “also recorded” stand apart in the source; their conditions may differ. Read-outs that look alike come from different tables or passages of the source. One block for each molecule: values may come before it.

What was measured:
human H3 receptor = human H3 receptor (Homo sapiens (Human), UniProt Q9Y5N1); test: Human H3 receptor HTRF cAMP assay; format: cell-based; settings: HEK293 cells expressing the human H3 receptor, forskolin 2 μM; read-out: IC50 H3R
Chain of human H3 receptor (Q9Y5N1 whole entry): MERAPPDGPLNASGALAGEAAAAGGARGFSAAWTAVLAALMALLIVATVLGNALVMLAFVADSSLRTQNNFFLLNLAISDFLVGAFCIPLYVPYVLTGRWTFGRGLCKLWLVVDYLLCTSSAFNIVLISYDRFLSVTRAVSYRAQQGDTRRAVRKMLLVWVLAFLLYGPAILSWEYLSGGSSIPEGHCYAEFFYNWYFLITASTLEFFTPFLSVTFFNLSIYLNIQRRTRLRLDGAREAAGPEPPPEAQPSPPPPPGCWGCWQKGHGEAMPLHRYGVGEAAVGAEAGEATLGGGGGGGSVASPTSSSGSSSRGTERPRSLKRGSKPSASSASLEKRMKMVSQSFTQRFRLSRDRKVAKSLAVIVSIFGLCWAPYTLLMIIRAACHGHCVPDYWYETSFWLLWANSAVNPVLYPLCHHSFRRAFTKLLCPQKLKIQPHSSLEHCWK
Text: Homogeneous time-resolved fluorescence assays (HTRF®, Cisbio) detect levels of cAMP in lysed cell preparations using a europium or terbium cryptate-labeled anti-cAMP antibody and fluorophore-labeled cAMP (cAMP-d2). In the absence of exogenous cAMP, the anti-cAMP antibody binds to cAMP-d2. Photoexcitation of the cryptate donor results in a combination of cryptate emission at 620 nm and fluorescence resonance energy transfer (FRET) from the cryptate to the acceptor d2 fluorophore, which then fluoresces at 665 nm. The 620/665 nm emission ratio is monitored. In the presence of exogenous cAMP, which competes with cAMP-d2 for binding to the anti-cAMP antibody, FRET is decreased and the […], providing a sensitive and accurate means to measure cAMP levels in biological assays.
Compounds of the present invention were evaluated using the human H3 receptor (H3R) HTRF cAMP assay. In this assay, HEK293 cells expressing the human H3 receptor were suspended in PBS containing 100 μM IBMX and plated into 384-well assay plates (Perkin Elmer Proxiplate 384-Plus; 15,000 cells per well; 5 μL plating volume) and allowed to equilibrate for an hour. Test compounds were serially diluted in 100% DMSO and then further diluted in PBS containing forskolin (2 μM). Test compounds (5 μL) were then added to the assay plate and the mixture was incubated for 1 hour. HTRF assay reagents (Cisbio, Dynamic 2 cAMP Kit), cAMP-d2 and cryptate-labeled anti-cAMP antibody, are mixed with cell lysis buffer and added to the assay plate. After 1-hour incubation with these reagents, the assay plate was read on an HTRF-compatible microplate reader (Perkin Elmer EnVision or BMG Pherastar). A cAMP standard curve was included on each assay plate and HTRF emission ratios for test compounds were fit to this curve to generate accurate measures of cAMP levels in each test well.

[1] = system: histamine-induced scratching behavior in mice; test: Histamine-induced model for pruritus (Example 6); format: in vivo, C57BL/6j male mice; settings: oral administration, histamine s.c. 30 min post-dosing, bouts counted 5-15 min, FIG. 6
Description: H3R inhibitors, Compound 3 and Compound 11, were dissolved in 0.5% methylcellulose at the appropriate concentration and 100 μL were administered orally to 8-week-old C57BL/6j male mice. Thirty minutes post-dosing, 25 μL of 40 mg/mL histamine solution was injected subcutaneously at the rostral part of the back. Mice were video recorded and the number of scratching bouts that occurred between 5 and 15 minutes was counted after histamine injection.

[2] = Brain to plasma ratio determination in male C57BL6 mouse; format: in vivo, Male C57BL6 mice
Description: Male C57BL6 mice were administered Compound 3 at 3 mg/kg by either intraperitoneal injection (IP) or oral gavage (PO). Plasma and brain samples were collected at 0.5 and 2.0 h post-dose. Blood samples were collected via eye bleed, followed by decapitation and extraction of the brain from the cranial cavity. Blood was treated with 0.5% EDTA; plasma was separated by centrifugation. Brain tissue was placed in ice-cold containers. Plasma and brain samples were frozen at approximately −70° C. until assayed at Arena Pharmaceuticals. Compound 3 plasma and brain concentrations were determined by LC/MS/MS. The lower limit of quantitation (i.e., LLQ) was 25.0 and 3.0 ng/mL for plasma and brain, respectively.

[3] = system: histamine-induced scratching behavior in mice; test: Histamine-induced model for pruritus (Example 5); format: in vivo, C57BL/6 mice; settings: oral administration, histamine 3 μmol s.c. 30 min post-dosing, bouts counted 0-30 min, FIG. 5
Description: C57BL/6 mice (9 per group) were administered with either vehicle (0.5% Methocellulose) or Compound 3. Thirty minutes post-dosing, the mice were injected with histamine (3 μmol) subcutaneously and placed in a clear observation box. Mice were video recorded and the number of scratching bouts that occurred between 0 and 30 minutes was counted after histamine injection.

- IC50 (human H3 receptor): 2.5 nM
- concentration at 0.5 h ([2]; C57BL6, brain, 3 mg/kg PO, 0.5 h post-dose, read-out: brain concentration): 39.8 ± 22.7 ng/g
- concentration at 2 h ([2]; C57BL6, brain, 3 mg/kg PO, 2.0 h post-dose, read-out: brain concentration): 29.1 ± 7 ng/g
- concentration at 0.5 h ([2]; C57BL6, brain, intraperitoneal, 3 mg/kg IP, 0.5 h post-dose, read-out: brain concentration): 71.7 ± 10.7 ng/g
- concentration at 2 h ([2]; C57BL6, brain, intraperitoneal, 3 mg/kg IP, 2.0 h post-dose, read-out: brain concentration): 17.2 ± 7.5 ng/g
- Kp ([2]; C57BL6, brain/plasma, 3 mg/kg IP, independent of time): ~0.05
- Kp at 0.5 h ([2]; C57BL6, brain/plasma, 3 mg/kg PO, 0.5 h post-dose): 0.04
- Kp at 2 h ([2]; C57BL6, brain/plasma, 3 mg/kg PO, 2.0 h post-dose): 0.05
- concentration at 0.5 h ([2]; C57BL6, plasma, 3 mg/kg PO, 0.5 h post-dose, read-out: plasma concentration): 1.08 ± 0.487 µg/mL
- concentration at 2 h ([2]; C57BL6, plasma, 3 mg/kg PO, 2.0 h post-dose, read-out: plasma concentration): 0.619 ± 0.185 µg/mL
- concentration at 0.5 h ([2]; C57BL6, plasma, intraperitoneal, 3 mg/kg IP, 0.5 h post-dose, read-out: plasma concentration): 1.35 ± 0.104 µg/mL
- concentration at 2 h ([2]; C57BL6, plasma, intraperitoneal, 3 mg/kg IP, 2.0 h post-dose, read-out: plasma concentration): 0.364 ± 0.135 µg/mL
SMILES: C[C@@H]1CCCN1CCc1ccc(-c2ccc(CCC(=O)O)cc2)cc1 [Compound 3, (R)-3-(4′-(2-(2-Methylpyrrolidin-1-yl)ethyl)biphenyl-4-yl)propanoic Acid]
- histamine-induced scratching behavior (number of scratching bouts) [1]: effectively inhibit histamine-induced pruritus; also recorded: inhibit histamine-induced scratching behavior
- histamine-induced scratching behavior (number of scratching bouts) [3]: effectively inhibits histamine-induced pruritus; also recorded: inhibit histamine-induced scratching behavior

- IC50 (human H3 receptor): 0.78 nM
SMILES: C[C@@H]1CCCN1CCc1ccc(-c2ccc(Cc3nnn[nH]3)cc2)cc1 [Compound 37, (R)-5-((4′-(2-(2-Methylpyrrolidin-1-yl)ethyl)biphenyl-4-yl)methyl)-1H-tetrazole]

- IC50 (human H3 receptor): 1.8 nM
SMILES: CCOC(=O)CCc1ccc(-c2ccc(CCN3CCC[C@H]3C)cc2)cc1 [Compound 11, (R)-Ethyl 3-(4′-(2-(2-Methylpyrrolidin-1-yl)ethyl)biphenyl-4-yl)propanoate]
- histamine-induced scratching behavior (number of scratching bouts) [1]: effectively inhibit histamine-induced pruritus; also recorded: inhibit histamine-induced scratching behavior

- IC50 (human H3 receptor): 1.9 nM
SMILES: COC(=O)CNC(=O)C1(c2ccc(-c3ccc(CCN4CCC[C@H]4C)cc3)cc2)CCCC1 [Compound 27, (R)-Methyl 2-(1-(4′-(2-(2-Methylpyrrolidin-1-yl)ethyl)biphenyl-4-yl)cyclopentanecarboxamido)acetate]

- IC50 (human H3 receptor): 2.5 nM
SMILES: C[C@@H]1CCCN1CCc1ccc(-c2ccc(C(=O)NCCC(=O)O)cc2)cc1 [Compound 43, (R)-3-(4′-(2-(2-Methylpyrrolidin-1-yl)ethyl)biphenyl-4-ylcarboxamido)propanoic Acid]

- IC50 (human H3 receptor): 0.67 nM
SMILES: CCOC(=O)COCc1ccc(-c2ccc(CCN3CCC[C@H]3C)cc2)cc1 [Compound 4, (R)-Ethyl 2-((4′-(2-(2-Methylpyrrolidin-1-yl)ethyl)biphenyl-4-yl)methoxy)acetate]

- IC50 (human H3 receptor): 1.1 nM
SMILES: COC(=O)CCc1ccc(-c2ccc(CCN3CCC[C@H]3C)cc2)cc1 [Compound 9, (R)-Methyl 3-(4′-(2-(2-Methylpyrrolidin-1-yl)ethyl)biphenyl-4-yl)propanoate]

- IC50 (human H3 receptor): 2.1 nM
SMILES: C[C@@H]1CCCN1CCc1ccc(-c2ccc(C3(C(=O)NCCCC(=O)O)CCCC3)cc2)cc1 [Compound 33, (R)-4-(1-(4′-(2-(2-Methylpyrrolidin-1-yl)ethyl)biphenyl-4-yl)cyclopentanecarboxamido)butanoic Acid]

- IC50 (human H3 receptor): 0.97 nM
SMILES: C[C@@H]1CCCN1CCc1ccc(-c2ccc(CCCC(=O)O)cc2)cc1 [Compound 45, (R)-4-(4′-(2-(2-Methylpyrrolidin-1-yl)ethyl)biphenyl-4-yl)butanoic Acid]

- IC50 (human H3 receptor): 0.79 nM
SMILES: C[C@H](NC(=O)CCc1ccc(-c2ccc(CCN3CCC[C@H]3C)cc2)cc1)C(=O)O [Compound 18, (S)-2-(3-(4′-(2-((R)-2-methylpyrrolidin-1-yl)ethyl)biphenyl-4-yl)propanamido)propanoic acid]

- IC50 (human H3 receptor): 3.8 nM
SMILES: C[C@@H]1CCCN1CCc1ccc(-c2ccc(C(=O)O)cc2)cc1 [Compound 1, (R)-4′-(2-(2-Methylpyrrolidin-1-yl)ethyl)biphenyl-4-carboxylic Acid]
